The text below walks through data of ChEMBL document CHEMBL3593241, “Leveraging the Pre-DFG Residue Thr-406 To Obtain High Kinase Selectivity in an Aminopyrazole-Type PAK1 Inhibitor Series” (ACS Med Chem Lett, 2015).

For data set [1], the target named is T1, Serine/threonine-protein kinase PAK 1 (Homo sapiens, UniProt Q13153). The experiment in a line: Inhibition of PAK1 in human EBC1 cells assessed as inhibition of MEK phosphorylation at S298. The data set is classed as cell-based.
In the next data set the test system is Mus musculus. Briefly: (§1) AUC in mouse at 25 mg/kg, po. The data set is classed as ADME, organism-based. As to conditions: in vivo, BLD = below limit of detection.
Data set [2] in a line: Oral bioavailability in mouse at 25 mg/kg. The data set is classed as ADME, organism-based. As to conditions: in vivo.
A short description of data set [3]: Clearance in mouse at 0.3 mg/kg, iv. The data set is classed as ADME, organism-based. The conditions noted are these: in vivo.
The target of data set [4] is Protein kinase C theta type (Homo sapiens) (UniProt Q04759). Briefly: Inhibition of recombinant human PKCtheta at 1 uM relative to control.
Chain of Protein kinase C theta type (Homo sapiens) (Q04759 whole entry, looked up): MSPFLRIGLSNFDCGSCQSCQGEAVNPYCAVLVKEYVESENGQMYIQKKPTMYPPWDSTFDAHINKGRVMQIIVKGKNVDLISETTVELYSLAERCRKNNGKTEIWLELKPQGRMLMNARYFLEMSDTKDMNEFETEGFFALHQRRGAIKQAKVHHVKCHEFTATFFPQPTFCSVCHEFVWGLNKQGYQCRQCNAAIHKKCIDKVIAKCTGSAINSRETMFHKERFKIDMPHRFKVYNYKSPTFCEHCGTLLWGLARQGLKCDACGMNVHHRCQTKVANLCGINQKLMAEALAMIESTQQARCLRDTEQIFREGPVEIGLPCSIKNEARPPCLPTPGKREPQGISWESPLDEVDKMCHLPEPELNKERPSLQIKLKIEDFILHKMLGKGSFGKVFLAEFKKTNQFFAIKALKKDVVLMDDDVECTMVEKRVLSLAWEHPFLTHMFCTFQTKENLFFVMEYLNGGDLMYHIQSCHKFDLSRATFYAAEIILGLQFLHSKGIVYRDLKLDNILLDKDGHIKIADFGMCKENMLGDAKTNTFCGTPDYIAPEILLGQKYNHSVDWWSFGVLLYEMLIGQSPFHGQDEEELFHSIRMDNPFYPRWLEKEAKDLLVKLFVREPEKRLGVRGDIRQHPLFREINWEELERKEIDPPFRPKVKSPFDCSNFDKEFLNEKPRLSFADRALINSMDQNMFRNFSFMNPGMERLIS
The target of data set [5] is T2, Serine/threonine-protein kinase PAK 4 (Homo sapiens, UniProt O96013). Briefly: Inhibition of PAK4 (unknown origin).
Target sequence in this assay (O96013 whole entry): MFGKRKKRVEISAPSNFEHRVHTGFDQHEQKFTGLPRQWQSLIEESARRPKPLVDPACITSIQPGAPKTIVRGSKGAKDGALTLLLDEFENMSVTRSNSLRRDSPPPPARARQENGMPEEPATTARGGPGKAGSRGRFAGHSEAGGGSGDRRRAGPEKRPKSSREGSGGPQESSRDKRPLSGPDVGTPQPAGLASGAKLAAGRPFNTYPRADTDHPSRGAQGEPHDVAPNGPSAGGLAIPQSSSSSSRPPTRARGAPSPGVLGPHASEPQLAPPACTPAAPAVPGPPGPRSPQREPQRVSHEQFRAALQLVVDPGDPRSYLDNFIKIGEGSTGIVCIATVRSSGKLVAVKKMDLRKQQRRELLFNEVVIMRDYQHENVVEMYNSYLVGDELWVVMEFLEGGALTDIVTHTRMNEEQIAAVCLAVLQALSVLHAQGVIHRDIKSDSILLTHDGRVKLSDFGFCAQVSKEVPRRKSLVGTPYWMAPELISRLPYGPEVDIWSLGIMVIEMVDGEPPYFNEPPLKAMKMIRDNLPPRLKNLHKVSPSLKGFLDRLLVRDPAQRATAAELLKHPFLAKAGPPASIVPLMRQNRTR
Data set [6] is described as follows: Lipophilicity, log D of the compound at pH 7.4. The data set is classed as physicochemical. As to conditions: buffer.
The next data set has as its target T3, Aurora kinase A (Homo sapiens, UniProt O14965).
T3 sequence (O14965 whole entry): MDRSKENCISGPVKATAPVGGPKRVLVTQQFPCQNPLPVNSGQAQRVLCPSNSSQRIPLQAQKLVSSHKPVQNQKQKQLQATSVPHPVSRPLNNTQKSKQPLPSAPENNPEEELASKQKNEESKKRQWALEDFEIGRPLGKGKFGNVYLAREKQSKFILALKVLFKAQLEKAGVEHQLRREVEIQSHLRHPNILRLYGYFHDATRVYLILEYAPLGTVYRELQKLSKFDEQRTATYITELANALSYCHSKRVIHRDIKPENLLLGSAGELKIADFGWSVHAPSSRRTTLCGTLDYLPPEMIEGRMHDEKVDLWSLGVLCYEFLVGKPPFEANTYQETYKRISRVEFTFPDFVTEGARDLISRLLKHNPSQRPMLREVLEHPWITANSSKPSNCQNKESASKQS
The experiment in a line: Inhibition of Aurora A (unknown origin).

Data set [7] concerns the target CDK2/Cyclin A2 (Homo sapiens) (UniProt P24941+P20248). The experiment in a line: Inhibition of recombinant human CDK2/cyclin A at 1 uM relative to control. The data set is classed as protein-complex assay.
In data set [8] the target is T1, Serine/threonine-protein kinase PAK 1. Briefly: Inhibition of PAK1 (unknown origin).
Data set [9] has as its target High affinity nerve growth factor receptor (Homo sapiens) (UniProt P04629). The conditions noted are these: 1 uM.
Description: Inhibition of recombinant human TrkA at 1 uM relative to control
The target in data set [10] is Myotonin-protein kinase (Homo sapiens) (UniProt Q09013). As to conditions: 1 uM.
Description: Inhibition of recombinant human DMPK at 1 uM relative to control
For data set [11], the system named is Platelet-derived growth factor receptor alpha (Homo sapiens), P16234 [V561D]. As to conditions: 1 uM.
Description: Inhibition of recombinant human PDGFRalpha V561D mutant at 1 uM relative to control
Data set [12] addresses Proto-oncogene tyrosine-protein kinase Src (Homo sapiens) (UniProt P12931). As to conditions: 1 uM.
Description: Inhibition of recombinant human Src at 1 uM relative to control
The target in data set [13] is Mitogen-activated protein kinase kinase kinase 9 (Homo sapiens) (UniProt P80192). The conditions noted are these: 1 uM.
Chain of Mitogen-activated protein kinase kinase kinase 9 (Homo sapiens) (P80192 whole entry, looked up): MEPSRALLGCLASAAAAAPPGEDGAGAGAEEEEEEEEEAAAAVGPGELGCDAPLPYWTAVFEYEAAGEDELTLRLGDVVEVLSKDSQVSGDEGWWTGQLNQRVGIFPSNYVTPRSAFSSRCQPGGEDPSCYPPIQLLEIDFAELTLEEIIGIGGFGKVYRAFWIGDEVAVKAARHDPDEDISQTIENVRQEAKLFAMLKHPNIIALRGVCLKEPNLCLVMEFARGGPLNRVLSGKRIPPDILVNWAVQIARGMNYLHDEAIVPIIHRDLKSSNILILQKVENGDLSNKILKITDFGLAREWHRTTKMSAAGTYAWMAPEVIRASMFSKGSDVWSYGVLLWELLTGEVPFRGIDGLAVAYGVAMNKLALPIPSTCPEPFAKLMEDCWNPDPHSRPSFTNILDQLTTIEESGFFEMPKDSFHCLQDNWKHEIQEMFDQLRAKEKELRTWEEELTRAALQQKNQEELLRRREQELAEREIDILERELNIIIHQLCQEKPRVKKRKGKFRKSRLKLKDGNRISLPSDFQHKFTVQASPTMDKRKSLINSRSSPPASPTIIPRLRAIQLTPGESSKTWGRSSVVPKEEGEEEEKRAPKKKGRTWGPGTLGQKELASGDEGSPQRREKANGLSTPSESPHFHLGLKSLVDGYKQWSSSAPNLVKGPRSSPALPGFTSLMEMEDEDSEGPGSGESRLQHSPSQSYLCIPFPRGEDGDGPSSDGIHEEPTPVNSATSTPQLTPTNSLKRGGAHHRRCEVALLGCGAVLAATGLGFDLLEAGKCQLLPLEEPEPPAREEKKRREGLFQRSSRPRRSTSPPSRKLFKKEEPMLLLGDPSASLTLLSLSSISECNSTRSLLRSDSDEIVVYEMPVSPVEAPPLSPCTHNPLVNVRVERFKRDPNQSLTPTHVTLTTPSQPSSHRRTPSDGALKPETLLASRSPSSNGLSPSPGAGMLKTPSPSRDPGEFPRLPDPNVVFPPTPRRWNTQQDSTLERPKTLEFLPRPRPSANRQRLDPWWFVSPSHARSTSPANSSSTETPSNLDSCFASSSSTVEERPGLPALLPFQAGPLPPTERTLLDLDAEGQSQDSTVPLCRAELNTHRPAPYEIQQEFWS
Description: Inhibition of recombinant human MLK1 at 1 uM relative to control
In data set [14] the target is BDNF/NT-3 growth factors receptor (Homo sapiens) (UniProt Q16620). As to conditions: 1 uM.
Chain of BDNF/NT-3 growth factors receptor (Homo sapiens) (Q16620 32-822 limits assumed): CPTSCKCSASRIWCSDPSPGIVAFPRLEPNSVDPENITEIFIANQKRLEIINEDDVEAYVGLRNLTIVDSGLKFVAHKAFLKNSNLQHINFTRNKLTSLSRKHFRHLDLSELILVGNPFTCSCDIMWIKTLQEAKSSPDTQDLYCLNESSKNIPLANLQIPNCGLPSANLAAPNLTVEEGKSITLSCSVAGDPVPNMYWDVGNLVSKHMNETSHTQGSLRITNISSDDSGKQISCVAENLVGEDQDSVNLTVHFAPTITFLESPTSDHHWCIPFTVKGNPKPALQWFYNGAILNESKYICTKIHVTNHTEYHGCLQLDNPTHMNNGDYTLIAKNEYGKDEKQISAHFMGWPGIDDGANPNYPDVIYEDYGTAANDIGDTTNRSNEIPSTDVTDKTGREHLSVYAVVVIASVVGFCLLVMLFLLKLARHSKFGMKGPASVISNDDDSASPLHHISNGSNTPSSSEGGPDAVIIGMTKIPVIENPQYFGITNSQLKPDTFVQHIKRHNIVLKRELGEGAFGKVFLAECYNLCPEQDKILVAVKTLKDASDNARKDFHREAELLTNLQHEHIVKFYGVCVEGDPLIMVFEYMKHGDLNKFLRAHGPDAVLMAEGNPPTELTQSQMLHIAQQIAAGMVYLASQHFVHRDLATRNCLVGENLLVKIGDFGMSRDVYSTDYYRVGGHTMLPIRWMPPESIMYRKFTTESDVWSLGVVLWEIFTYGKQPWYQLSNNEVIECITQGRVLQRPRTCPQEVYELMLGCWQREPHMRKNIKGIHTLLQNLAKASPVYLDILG
Description: Inhibition of recombinant human TrkB at 1 uM relative to control
The target in data set [15] is Cyclin-dependent kinase 7/ cyclin H (Homo sapiens) (UniProt P51946+P50613). The conditions noted are these: 1 uM.
Description: Inhibition of recombinant human CDK7/cyclin H at 1 uM relative to control
The target of data set [16] is Tyrosine-protein kinase JAK2 (Homo sapiens) (UniProt O60674). The conditions noted are these: 1 uM.
Description: Inhibition of recombinant human JAK2 at 1 uM relative to control
Data set [17] concerns the target Serine/threonine-protein kinase 3 (Homo sapiens) (UniProt Q13188). The conditions noted are these: 1 uM.
Description: Inhibition of recombinant human MST2 at 1 uM relative to control
In data set [18] the target is Serine/threonine-protein kinase 4 (Homo sapiens) (UniProt Q13043). The conditions noted are these: 1 uM.
Description: Inhibition of recombinant human MST1 at 1 uM relative to control
The target in data set [19] is Cyclin-dependent kinase 5/CDK5 activator 1 (Homo sapiens) (UniProt Q00535+Q15078). As to conditions: 1 uM.
Description: Inhibition of recombinant human CDK5/p25 at 1 uM relative to control
In data set [20] the target is Mitogen-activated protein kinase kinase kinase kinase 5 (Homo sapiens) (UniProt Q9Y4K4). The conditions noted are these: 1 uM.
Chain of Mitogen-activated protein kinase kinase kinase kinase 5 (Homo sapiens) (Q9Y4K4 whole entry, looked up): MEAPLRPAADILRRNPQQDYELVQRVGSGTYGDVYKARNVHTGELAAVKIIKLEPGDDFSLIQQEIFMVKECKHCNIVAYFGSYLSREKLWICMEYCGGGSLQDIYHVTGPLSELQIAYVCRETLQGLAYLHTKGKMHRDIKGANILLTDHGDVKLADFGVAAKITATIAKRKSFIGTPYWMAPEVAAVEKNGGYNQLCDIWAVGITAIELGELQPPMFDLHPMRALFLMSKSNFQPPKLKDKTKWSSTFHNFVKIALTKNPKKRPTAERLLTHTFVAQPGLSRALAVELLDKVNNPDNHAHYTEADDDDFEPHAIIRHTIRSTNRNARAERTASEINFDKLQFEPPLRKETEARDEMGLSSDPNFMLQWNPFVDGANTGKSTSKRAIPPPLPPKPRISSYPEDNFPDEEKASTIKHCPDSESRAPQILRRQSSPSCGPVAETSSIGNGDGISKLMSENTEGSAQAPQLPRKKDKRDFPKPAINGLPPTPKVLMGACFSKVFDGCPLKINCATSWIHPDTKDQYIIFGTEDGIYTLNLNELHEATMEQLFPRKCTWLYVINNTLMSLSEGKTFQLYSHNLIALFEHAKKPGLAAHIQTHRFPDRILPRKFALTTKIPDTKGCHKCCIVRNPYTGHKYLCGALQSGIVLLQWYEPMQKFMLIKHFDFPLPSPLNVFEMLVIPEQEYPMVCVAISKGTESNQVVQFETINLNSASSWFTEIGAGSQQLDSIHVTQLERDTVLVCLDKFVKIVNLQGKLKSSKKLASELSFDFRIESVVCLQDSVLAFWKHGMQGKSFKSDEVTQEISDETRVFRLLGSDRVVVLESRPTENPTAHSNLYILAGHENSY
Description: Inhibition of recombinant human KHS1 at 1 uM relative to control
Data set [21] concerns the target Protein kinase C delta type (Homo sapiens) (UniProt Q05655). As to conditions: 1 uM.
Description: Inhibition of recombinant human PKCdelta at 1 uM relative to control
Data set [22] addresses Protein kinase C alpha type (Homo sapiens) (UniProt P17252). As to conditions: 1 uM.
Description: Inhibition of recombinant human PKCalpha at 1 uM relative to control
Data set [23] deals with T2, Serine/threonine-protein kinase PAK 4. The conditions noted are these: 1 uM.
Target sequence in this assay (O96013 whole entry, looked up): as the sequence (O96013 whole entry) above
Description: Inhibition of recombinant human PAK4 at 1 uM relative to control
Data set [24] concerns the target Glycogen synthase kinase-3 alpha (Homo sapiens) (UniProt P49840). The conditions noted are these: 1 uM.
Description: Inhibition of GSK-3alpha (unknown origin) at 1 uM relative to control
Data set [25] has as its target Epidermal growth factor receptor (Homo sapiens) (UniProt P00533). The conditions noted are these: 1 uM.
Description: Inhibition of recombinant human EGFR at 1 uM relative to control
In data set [26] the target is Cyclin-dependent kinase 1/cyclin B1 (Homo sapiens) (UniProt P06493+P14635). As to conditions: 1 uM.
Description: Inhibition of recombinant human CDK1/cyclin B at 1 uM relative to control
In data set [27] the target is Ribosomal protein S6 kinase alpha-2 (Homo sapiens) (UniProt Q15349). As to conditions: 1 uM.
Description: Inhibition of recombinant human RSK3 at 1 uM relative to control
The target in data set [28] is T1, Serine/threonine-protein kinase PAK 1. As to conditions: 1 uM.
Description: Inhibition of recombinant human PAK1 at 1 uM relative to control
In data set [29] the target is Vascular endothelial growth factor receptor 2 (Homo sapiens) (UniProt P35968). The conditions noted are these: 1 uM.
Description: Inhibition of recombinant human KDR at 1 uM relative to control
Data set [30] has as its target Aurora kinase A (Homo sapiens) (UniProt O14965). The conditions noted are these: 1 uM.
Description: Inhibition of recombinant human Aurora A at 1 uM relative to control
The target in data set [31] is Receptor-type tyrosine-protein kinase FLT3 (Homo sapiens) (UniProt P36888). The conditions noted are these: 1 uM.
Description: Inhibition of recombinant human FLT3 at 1 uM relative to control
A short description of data set [32]: Apparent permeability across apical to basolateral side of MDCK cells. The data set is classed as ADME, cell-based, Canis lupus familiaris. The conditions noted are these: dog.
The nature of data set [33]: as §1. The data set is classed as ADME, organism-based. The conditions noted are these: in vivo.

T1 sequence (Q13153 whole entry): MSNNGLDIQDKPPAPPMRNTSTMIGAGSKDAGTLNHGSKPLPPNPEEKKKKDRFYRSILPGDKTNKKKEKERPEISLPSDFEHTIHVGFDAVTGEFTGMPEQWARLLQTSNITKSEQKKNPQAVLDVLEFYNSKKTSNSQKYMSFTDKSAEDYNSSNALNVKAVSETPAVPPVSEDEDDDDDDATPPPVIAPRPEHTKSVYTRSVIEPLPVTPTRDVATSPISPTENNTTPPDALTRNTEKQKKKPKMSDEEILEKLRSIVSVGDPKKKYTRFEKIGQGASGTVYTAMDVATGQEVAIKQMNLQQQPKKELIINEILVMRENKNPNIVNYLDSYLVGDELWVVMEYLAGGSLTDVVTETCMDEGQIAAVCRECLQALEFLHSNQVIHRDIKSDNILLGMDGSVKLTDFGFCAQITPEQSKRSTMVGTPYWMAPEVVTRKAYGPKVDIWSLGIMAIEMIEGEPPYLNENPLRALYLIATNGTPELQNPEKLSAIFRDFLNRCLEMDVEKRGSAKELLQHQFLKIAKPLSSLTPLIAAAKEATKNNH

With `CCN(C[C@H]1CC[C@H](N)CC1)c1nccc(Nc2cc([C@H]3CCN(C)C3=O)[nH]n2)n1`, in [1], the IC50 is > 10000 nM. Moreover, the AUC entry in the data set on Mus musculus was “BLD”. For the same compound, the bioavailability in [2] is < 1%. In addition, the clearance in data set [3] came to 33 mL/min/kg. Also, the inhibition was > 75% in data set [4] and < 75% in data set [7]. Further, the Ki in [5] is 621 nM; on Aurora kinase A, > 5400 nM; in data set [8] it was 49 nM. Also, the logD in data set [6] amounted to 0.12.
On to `Clc1c(CNc2nccc(Nc3cc(C4CCCO4)[nH]n3)n2)ccc2[nH]cnc12` (racemic), for which the Ki is 1300 nM in data set [5], 25 nM on Aurora kinase A and 25 nM in data set [8].
`CCN1CC[C@H](c2cc(Nc3ccnc(N(C)C[C@H]4CC[C@H](N)CC4)n3)n[nH]2)C1=O`: the Ki in data set [5] is 817 nM; on Aurora kinase A, > 5400 nM; in data set [8], 18 nM.
For `C[C@H]1CN(C)C(=O)[C@@H]1c1cc(Nc2ccnc(N(C)C[C@H]3CC[C@H](N)CC3)n2)n[nH]1`, the inhibition in data set [9], in data set [10], in [11], in data set [12], in [13] and in data set [14] was < 75% in each case. Besides, the inhibition in [15], in [16], in [17], in data set [18], in data set [19] and in [20] was < 75% in each case. For the same compound, the inhibition was > 75% in data set [4]; < 75% in data set [21]; < 75% in data set [22]; < 75% in data set [23]; < 75% in data set [24]; < 75% in data set [25]. Also, the inhibition in [26] is < 75%; in [27] it was < 75%; in [28], > 75%; in data set [7], < 75%; in data set [29], < 75%; in data set [30], < 75%. Also, the inhibition in data set [31] was < 75%. The figures for the Ki (in data set [5]; on Aurora kinase A; in data set [8]) were 1020 nM, > 5400 nM and 46 nM, respectively.
On to `CN(Cc1ccc2[nH]cnc2c1Cl)c1nccc(Nc2cc(C3CCC(=O)C3)[nH]n2)n1` (racemic), for which the Ki in data set [5] was 629 nM; on Aurora kinase A, 17 nM; in data set [8] it was 16 nM.
The like results for `CN1CC(C)(C)C(c2cc(Nc3ccnc(N(C)C[C@H]4CC[C@H](N)CC4)n3)n[nH]2)C1=O` (stereo partly drawn) were, in that order, > 2900 nM, > 5400 nM and > 4500 nM.
For `CC(=O)N(C)Cc1cc(Nc2ccnc(N(C)Cc3ccc4[nH]cnc4c3Cl)n2)n[nH]1`, in that order: > 2900 nM, 893 nM and 373 nM.
Regarding `CN(Cc1ccc2[nH]cnc2c1Cl)c1nccc(Nc2cc(C3CC3)[nH]n2)n1`, the Ki was 272 nM in data set [5], 3 nM at Aurora kinase A and 5 nM in [8].
As to `COCC(C)c1cc(Nc2ccnc(N(C)Cc3ccc4[nH]cnc4c3Cl)n2)n[nH]1` (stereo not drawn), the Ki in data set [5] turned out to be 617 nM; on Aurora kinase A, 131 nM; in data set [8], 29 nM.
The like results for `CN1CC[C@@H](c2cc(Nc3ccnc(N(C)Cc4ccc5[nH]cnc5c4Cl)n3)n[nH]2)C1=O` were, in that order, > 2900 nM, > 5400 nM and 552 nM.
Consider `CN1CC[C@H](c2cc(Nc3ccnc(N(C)Cc4ccc5[nH]cnc5c4Cl)n3)n[nH]2)C1=O`, for which the IC50 in data set [1] turned out to be 7800 nM. Also, the Papp A→B in data set [32] was determined as 5 ×10⁻⁶ cm/s. In data set [33], the AUC stood at 5.2 µM·h. Also, in [2], the bioavailability is < 1%. In data set [3], this compound yielded a clearance of 7 mL/min/kg. For the same compound, the Ki in data set [5] was 950 nM; on Aurora kinase A it was > 5400 nM; in [8] it was 18 nM. The same compound registered a logD in [6] of 1.8.
Regarding `CN1CC[C@H](c2cc(Nc3ccnc(NC[C@H]4CC[C@H](N)CC4)n3)n[nH]2)C1=O`, the Ki in data set [5] is 1270 nM; at Aurora kinase A it was > 5400 nM; in [8], 111 nM.
Take `CN1CC[C@H](c2cc(Nc3ccnc(N(C)C[C@H]4CC[C@H](N)CC4)n3)n[nH]2)C1=O`: in [1], the IC50 is > 10000 nM. In addition, the bioavailability in data set [2] is < 1%. In addition, the Ki in [5] was found to be 344 nM; on Aurora kinase A, 3500 nM; in [8] it was 37 nM. This compound registered a logD in [6] of 0.96.
Consider `CN1CCCC(c2cc(Nc3ccnc(N(C)C[C@H]4CC[C@H](N)CC4)n3)n[nH]2)C1=O` (mixture of isomers), for which the Ki in [5] was 2490 nM; on Aurora kinase A it was > 5400 nM; in data set [8], 362 nM.
